Experimental data taken from US8246985B2, “Pharmaceutical composition comprising lipase inhibitor and lipophilic oil absorbent and oral formulation prepared therefrom” (Amorepacific Corporation, priority 2006, dated 2012).

Assay: Oil adsorption test for selection of lipophilic oil absorbent
Format: physicochemical
Details: for Amount of remained oil: 1.5 g substance (0.1 g hydroxypropyl methyl cellulose and polyethylene oxide, 0.5 g light anhydrous silicic acid), 5 g soybean oil, 15 g purified water, mixed 2 min, centrifuged 3,000 g 5 min, weight of supernatant oil layer; for Adsorption (%): ratio of oil adsorbed (dispersants: oil within dispersing layer) to total oil amount (5 g)
Procedure: In order to select a lipophilic oil absorbent that is capable of adsorbing unabsorbed free oil by the action of a lipase inhibitor, various substances known as a dispersant or adsorbent were subjected to an adsorption test as follows. 1.5 g of each ingredient listed in Table 1 (excepted for 0.1 g of each of hydroxypropyl methyl cellulose and polyethylene oxide, 0.5 g of light anhydrous silicic acid), 5 g of soybean oil and 15 g of purified water were mixed in a test tube for 2 minutes and centrifuged at 3,000 g for 5 minutes. After separating the supernatant oil layer, the oil adsorption degree of each substance was determined.
In table 1, the amount of oil remained was measured from the weight of the oil layer after adsorption, and the adsorption (%) means the ratio of the amount of oil adsorbed (which is obtained by subtracting the remained oil amount from the total oil amount) to the total amount of oil. On using a dispersant, the amount of oil remained means the oil amount of a supernatant excepting oil dispersed layer, and the adsorption (%) means the ratio of the oil amount within the dispersing layer to the total oil amount (5 g).

CCCCCCCCCCCCOS(=O)(=O)[O-].[Na+] [Sodium lauryl sulfate]
Amount of remained oil: 0.00 g | Adsorption (%) (sulfate): 100%

Sorbitan trioleate
Amount of remained oil: 0.17 g | Adsorption (%): 1.13%

Polyoxyethylene(2) cetyl ether
Amount of remained oil: 2.79 g | Adsorption (%): 2.79%
